Our source for the Activity values is ChEMBL document CHEMBL5033989, “Nor-abietane Diterpenoids from Perovskia abrotanoides Roots with Anti-inflammatory Potential” (J Nat Prod, 2021).

In data set [1] the test system is J774.A1. The data set is described as follows: Cytotoxicity against mouse J774.A1 cells assessed as antiproliferative activity at 12.5 to 50 uM incubated for 24 hrs by MTT assay relative to control. The data set is classed as cell-based. Conditions: j774.a1, 24 h, dose 12.5-50 µM.
Data set [2] concerns J774.A1. The data set is described as follows: Inhibition of LPS-induced NO release in mouse J774.A1 cells at 12.5 to 50 uM when treated with compound and LPS simultaneously measured after 24 hrs by Griess reagent based assay relative to control. Conditions: dose 12.5-50 µM. The data set is classed as functional, cell-based.
For data set [3], the system named is J774.A1. The data set is described as follows: Inhibition of iNOS expression in LPS-stimulated mouse J774.A1 cells at 12.5 to 50 uM measured after […] by flow cytometry analysis relative to control. Conditions: dose 12.5-50 µM. The data set is classed as functional, cell-based.
Data set [4] deals with J774.A1. The data set can be described thus: Inhibition of LPS-induced NO release in mouse J774.A1 cells at 5 uM when treated with compound and LPS simultaneously measured after 24 hrs by Griess reagent based assay relative to control. The arrangement: scale not given: the % may be the effect or the level left. The data set is classed as functional.
The subject of data set [5] is J774.A1. The data set can be described thus: Cytotoxicity against mouse J774.A1 cells assessed as antiproliferative activity at 200 uM incubated for 24 hrs by MTT assay relative to control. The data set is classed as cell-based. Particulars: j774.a1, 24 h.

Activity calls are given as the source filed them. No cut-off for these calls is given here.

On to `CC1(C)CCC[C@@]23CO[C@@H](C[C@@H]12)c1cc(O)c(O)cc13`, for which, in the data set on J774.A1 [1], the Activity entry is given as “Toxic”.

In the case of `Cc1cc2c(cc1O)C[C@]1(O)CCCC(C)(C)[C@@H]1CC2`, the outcome in the data set with J774.A1 [2] and in the data set on J774.A1 [3] was Active. Also, in the data set with J774.A1 [1], the Activity entry is reported as “Non-Toxic”.

`Cc1cc2c(cc1O)[C@@]13CCCC(C)(C)[C@@H]1[C@H](OC3)[C@@H]2O`: the Activity result in the data set with J774.A1 [1] was “Toxic”.

Consider `COC(=O)[C@@H](N)CCCNC(=N)N[N+](=O)[O-].Cl`, for which the Activity with J774.A1 [4] was 57%.

As for `CC(CO)C1=C(O)C(=O)c2c(ccc3c2[C@H](O)CCC3(C)C)C1=O` (stereo not given in full), the result with J774.A1 [2] and in the data set on J774.A1 [3] was Active. Besides, in the data set on J774.A1 [1], the Activity entry is “Non-Toxic”.

For `CC1=C[C@]2(O)CC[C@H]3C(C)(C)CCC[C@@]3(O)C2=CC1=O`, the result in the data set on J774.A1 [2] and with J774.A1 [3] was Active. In the data set on J774.A1 [1], the Activity result was “Non-Toxic”.

As to `CC(C)c1cc2ccc3c(c2c(O)c1O)C=CC(=O)C3(C)C`, the result in the data set with J774.A1 [2] and in the data set with J774.A1 [3] was Active. In addition, in the data set on J774.A1 [1], the Activity result is reported as “Non-Toxic”.

On to `Cc1cc2c(cc1O)[C@@]13CCC(=O)C(C)(C)[C@@H]1C[C@@H]2OC3`, for which the result with J774.A1 [2] and with J774.A1 [3] was Active. For the same compound, the Activity entry with J774.A1 [1] is “Non-Toxic”.

Consider `Sc1ncnc2nc[nH]c12` [MERCAPTOPURINE ANHYDROUS], for which, in the data set on J774.A1 [5], the Activity is reported as 27.86%.

Consider `CC1=C[C@@]2(O)CC[C@H]3C(C)(C)CCC[C@]3(CO)C2=CC1=O`, for which the Activity result in the data set on J774.A1 [1] was “Toxic”.
